Experimental data reported in article PMC12281485, “High-Throughput Screening of Potent Drug-like Molecules Targeting 17β-HSD10 for the Treatment of Alzheimer’s Disease and Cancer” (ACS Chemical Biology, 2025).
Like-named read-outs stand apart in the source and are kept apart here.

Key:
17β-HSD10 [1] = target: T1, 17β-HSD10 (Homo sapiens, UniProt Q99714); experiment: 17β-HSD10 enzyme inhibition dose-response assay (acetoacetyl-CoA/NADH, absorbance 340 nm); format: biochemical; conditions: for fold improvement in activity/potency over hit ESC1002082: relative to ESC1002082
T1 construct: Recombinant 17β-HSD10 was expressed and purified as previously described in Aitken et al; made in house
T1 sequence (Q99714 1-261): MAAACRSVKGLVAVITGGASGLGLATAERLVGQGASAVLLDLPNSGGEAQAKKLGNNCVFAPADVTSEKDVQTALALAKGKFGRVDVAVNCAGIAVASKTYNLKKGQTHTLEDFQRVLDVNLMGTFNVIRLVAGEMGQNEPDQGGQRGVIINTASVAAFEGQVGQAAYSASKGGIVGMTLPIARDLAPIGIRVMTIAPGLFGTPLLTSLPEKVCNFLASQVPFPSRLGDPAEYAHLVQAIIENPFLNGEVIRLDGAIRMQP
Protocol: Recombinant 17β-HSD10 was expressed and purified as previously described in Aitken et al.
17β-HSD10 screening was carried out as described in Aitken et al. with the exception that experiments were also conducted in clear-bottom 1536-well low-volume microplates (Corning) with a final assay volume of 20 μL. For primary screening, an endpoint assay format was adopted, in which an Echo acoustic liquid dispenser (Labcyte) was used to transfer 20 nL of either DMSO control […] or test compounds (10 μM) to the assay plate. 10 μL of the 17β-HSD10 enzyme in an assay buffer (2.5 nM) was then added to the plates using the Preddator liquid handling robot (Redd and Whyte), and plates were incubated at RT for 15 min. 10 μL of the substrate mixture (100 μM acetoacetyl-CoA and 100 μM NADH) was added with the Preddator. To start the reaction, the plates were left to incubate for 35 min at RT before the absorbance at 340 nm was read on the EnVision plate reader (PerkinElmer). For the kinetic assay format and dose-response follow-up experiments, the same protocol was adopted, except that the absorbance at 340 nm was monitored constantly for 45 min from immediately after the reaction was started.

[2] = tested on: HEK293 cells overexpressing 17β-HSD10; experiment: LDH cytotoxicity assay; format: cell-based, human; conditions: 50 μM compound, 24 h, n = 3 ± SD
Protocol: Cell cytotoxicity was assessed via the measurement of LDH leakage into the culture medium using a commercially available kit from Pierce (Thermo Scientific cat no. 88953). This was carried out in accordance with the kit guidelines, with the activity of LDH being calculated from the change in absorbance at […]. Human embryonic kidney (HEK293) cells overexpressing 17β-HSD10 were cultured in phenol-red free media (10% FBS, 1 mM sodium pyruvate, 100 units penicillin, 0.1 mg mL^–1 streptomycin, and 2 mM L-glutamine) and seeded at a density of 10,000 cells per well (100 μL, 96-well plates). […] Treated cells were then incubated at 37 °C and CO2 (5%) for 24 h before the LDH assay was performed as per the manufacturer’s instructions. Spontaneous control (water) and maximum control (lysis buffer) were used in accordance with the kit guide. Absorbance was measured at 490 and 680 nm using the SpectraMaxM2e spectrophotometer. The measured LDH activity was used to calculate %cytotoxicity using the following equation (eq ): %cytotoxicity=(compoundtreatedLDHactivity−spontaneousLDHactivity)/(maximumLDHactivity−spontaneousLDHactivity)×100 1

[3] = Alamar Blue cell viability assay; format: cell-based, human; conditions: human, HEK293 cells overexpressing 17β-HSD10, 50 μM compound, n = 3 ± SD, read-out: Alamar Blue % viability (50 μM dose)
Protocol: Cell viability was assessed via fluorescence change using the commercially available Alamar Blue from ThermoFisher. HEK293 cells overexpressing 17β-HSD10 were cultured in phenol-red free media (10% FBS, 1 mM sodium pyruvate, 100 units penicillin, 0.1 mg mL^–1 streptomycin, and 2 mM L-glutamine) and seeded at a density of 10,000 cells per well (100 μL, 96-well plates). […] Treated cells were then incubated at 37 °C and CO2 (5%) for 24 h before the assay was performed as per the manufacturer’s instructions. Fluorescence was measured at 530 nm excitation and 590 nm emission using the SpectraMaxM2e spectrophotometer.

17β-HSD10 [4] = target: T1, 17β-HSD10; experiment: (−)-CHANA fluorescence assay of cellular 17β-HSD10 activity; format: cell-based; conditions: read-out: cellular 17β-HSD10 activity mean pEC50 (converted)
Protocol: (−)–CHANA ((−)-cyclohexenyl amino naphthalene alcohol) is a fluorogenic probe that can be used to detect 17β-HSD10 activity in living cells. HEK293 17β-HSD10 cells were seeded at a density of 10,000 cells per well (100 μL, 96-well black plates) in phenol-red free media (10% FBS, 1 mM sodium pyruvate, 100 units penicillin, 0.1 mg mL^–1 streptomycin, and 2 mM L-glutamine). […] The fluorogenic probe (−)–CHANA was then added to each well to give a final assay concentration of 20 μM. Fluorescence was immediately measured using the FLUOstar Optima microplate reader (excitation = 380 nm, emission = 520 nm, orbital averaging = 3 mm), and the initial reaction was monitored for 3–4 h. EC50 was calculated from the control-subtracted triplicates using nonlinear regression (four parameters) of GraphPad Prism 5 software. The Final EC50 and SEM values were obtained as a mean of at least three independent measurements.

[5] = Mouse hepatocyte metabolic stability; format: in vitro ADME; set-up: k (elimination constant): unit not given here; conditions: mouse hepatocytes; for Heps category: metabolism category; for Cl (clearance): limits of quantitation 0.5 and 50; for half-life: read-out: T1/2 (half-life)
Protocol: Hepatocyte isolation, hepatocyte incubations for metabolic stability, plasma protein binding (PPB) experiments, and LC/MS sample analysis were carried out as previously described in Brandon et al. and MacLeod et al.
XLfit (IDBS, UK) was used to calculate the exponential decay and the rate constant (k) from the ratio of the peak area of the test compound to the internal standard at each time point. […] Verapamil, 7-ethoxycoumarin, 7-hydroxycoumarin, and phthalazine were used as positive controls to confirm acceptable assay performance. […] Values were transferred to RStudio v1.3.1093 (Posit, Boston, MA, USA) for generation of scatter plots and heatmaps using the ggplot2 package (Wickham 2016).

[6] = Table 2, chemically modified cluster hit compounds, read-out: 17β-HSD10 pIC50 (converted)
[7] = Table 4, 17β-HSD10 overexpressing HEK293 cells, CHANA fluorescence assay
[8] = Table 3, chemically modified singleton hit compound series, read-out: 17β-HSD10 pIC50 (converted)
[9] = Table 5, read-out: mean 17β-HSD10 pIC50 (converted)
[10] = Table 5, HEK293 17β-HSD10 cells, CHANA assay
[11] = Table 1, primary screening assay, resynthesized HTS hits, read-out: 17β-HSD10 pIC50 (converted)

SMILES | LDH % toxicity (50 μM dose) [2] | viability at 24 h, 50 μM [3] | EC50 (17β-HSD10 [4]; [7]) | IC50 (17β-HSD10 [1]; [8]) | also measured
COc1ccc(-c2ccccc2C2CCCN2C(=O)c2sccc2C)cc1 (stereo not drawn) [ESC1002332] | 3.52 ± 0.01% | 87.7 ± 1.67% | 7220 nM | – | IC50 (17β-HSD10 [1]; [6]): 166 nM
COc1cccc(-c2ccccc2C2CCCN2C(=O)c2sccc2Cl)c1 (stereo not drawn) [ESC1002606] | 5.09 ± 0.02% | 78 ± 1.09% | – | – | –
O=C(c1sccc1Cl)N1CCC[C@H]1c1ccccc1-c1cccc(O)c1 [ESC1002666] | 4.49 ± 0.02% | 79.3 ± 1.03% | 138 nM | 58.9 nM | –
COc1ccc(-c2ccccc2[C@@H]2CCCN2C(=O)c2sccc2C)cc1 [ESC1002089] | 5.40 ± 0.05% | 82 ± 2.23% | 1790 nM | 331 nM | fold improvement in activity/potency over hit ESC1002082 (17β-HSD10 [1]): ~3 fold
COc1cccc(-c2ccccc2C2CCCN2Cc2sccc2F)c1 (stereo not drawn) [ESC1002695] | – | – | – | – | 17β-HSD10 inhibitory activity (in words) (17β-HSD10 [1]): lost all activity
CC(C)CN(C(=O)c1ccccc1F)c1cccc(N(C)Cc2ccn[nH]2)c1 [ESC1002205] | 5.84 ± 0.01% | 82.52 ± 0.57% | 3130 nM | – | IC50 (17β-HSD10 [1]; [6]): 891 nM
O=C(c1sccc1Cl)N1CCCC1c1ccccc1-c1cccc(O)c1 (stereo not drawn) [ESC1002755] | 5.47 ± 0.04% | 85.3 ± 2.01% | 28 nM | 20 nM | IC50 (17β-HSD10 [1]; [9]): 18.6 nM; fold improvement in activity/potency over hit ESC1002082 (17β-HSD10 [1]): 40 fold; EC50 (17β-HSD10 [4]; [10]): 28 nM; k (elimination constant) [5]: 0.22; Heps category [5]: high; Cl (clearance) [5]: >50 mL/min/g liver; half-life [5]: 3.1 min
CC(C)CN(C(=O)c1ccccc1F)c1cccc(NCc2c[nH]cn2)c1 [ESC1002631] | – | – | – | – | IC50 (17β-HSD10 [1]; [6]): 9330 nM
COc1cccc(-c2ccccc2C2CCCN2C(=O)c2[nH]ncc2Cl)c1 (stereo not drawn) [ESC1002757] | 5.03 ± 0.02% | 89.52 ± 0.84% | 266 nM | 115 nM | LipE (17β-HSD10 [1]): 2.76; IC50 (17β-HSD10 [1]; [9]): 105 nM; EC50 (17β-HSD10 [4]; [10]): 266 nM; k (elimination constant) [5]: 0.13; Heps category [5]: high; Cl (clearance) [5]: >50 mL/min/g liver; half-life [5]: 5.3 min
COc1ccc(-c2ccccc2[C@@H]2CCCN2C(=O)c2sccc2C)cn1 [ESC1002161] | – | – | – | – | 17β-HSD10 pIC50 (17β-HSD10 [1]; Supplementary B, Table S1 and text, enantiomers): < 4.7
COc1cccc(C(=O)N(CC(C)C)c2cccc(N(C)Cc3cnc[nH]3)c2)c1 [ESC1002038] | – | – | – | – | IC50 (17β-HSD10 [1]; [11]): 2000 nM
COc1cccc(-c2ccccc2[C@@H]2CCCN2C(=O)c2[nH]ncc2Cl)c1 [ESC1002626] | – | – | – | 457 nM | –
CC(C)CN(C(=O)c1ccncc1)c1cccc(N(C)Cc2cnc[nH]2)c1 [ESC1002034] | – | – | – | – | IC50 (17β-HSD10 [1]; [11]): 1580 nM
CC(C)CN(C(=O)C1CCCCC1)c1cccc(N(C)Cc2cnc[nH]2)c1 [ESC1002166] | 4.55 ± 0.02% | 78.9 ± 0.9% | 976 nM | – | IC50 (17β-HSD10 [1]; [6]): 955 nM
